According to patent US9169199B2, “Cycloalkyl guanidine F1F0-ATPase inhibitors and therapeutic uses thereof” (Lycera Corporation, priority 2010, dated 2015):

Assays:
F1F0-ATPase = target: T1, F1F0-ATPase (Bos taurus, UniProt P13621); experiment: Inhibition of ATP synthesis by the F1F0-ATPase; format: biochemical
T1 construct: from tissue
Description: (§1) Compounds in Example 4 above were tested for activity against F1F0-ATPase by measuring ATP synthesis. In addition, the compounds were assessed for cytotoxicity in Ramos cells. Inhibition of ATP synthesis by the F1F0-ATPase and cytotoxicity in Ramos cells were measured according to the procedures described in K. M. Johnson et al. Chemistry & Biology 2005, 12, 485-496.

Ramos cells = experiment: Cytotoxicity in Ramos cells; format: cell-based; conditions: Homo sapiens, read-out: Ramos cell EC50
Description: as §1

| SMILES | IC50 (F1F0-ATPase) | EC50 (Ramos cells) |
| --- | --- | --- |
| CC(C)(C)c1ccccc1N/C(=N\C(=O)c1ccc(C(F)(F)F)cc1)N[C@H]1CC[C@H](O)CC1 [Compound 1] | < 10 µM | < 10 µM |
| O=C(/N=C(\Nc1cccc(C(F)(F)F)c1)N[C@H]1CC[C@H](O)CC1)c1ccc(C(F)(F)F)cc1 [Compound 2] | < 10 µM | < 10 µM |
| CS(=O)(=O)N[C@H]1CC[C@H](N/C(=N\C(=O)c2ccc(F)c(F)c2)Nc2cccc(C(F)(F)F)c2)CC1 [Compound 3] | < 10 µM | < 10 µM |
| O=C(/N=C(/Nc1cccc(C(F)(F)F)c1)N[C@H]1CC[C@H](O)CC1)c1ccc(F)c(F)c1 [Compound 4] | < 10 µM | < 10 µM |
| O=C(/N=C(/Nc1cccc(Cl)c1)N[C@H]1CC[C@H](O)CC1)c1ccc(F)c(F)c1 [Compound 5] | > 10 µM | < 10 µM |
| O=C(/N=C(/Nc1cc(F)cc(Cl)c1)N[C@H]1CC[C@H](O)CC1)c1ccc(F)c(F)c1 [Compound 6] | < 10 µM | < 10 µM |
| O=C(/N=C(/Nc1cc(F)cc(Cl)c1)N[C@H]1CC[C@H](O)CC1)c1ccc(C(F)(F)F)cc1 [Compound 7] | < 10 µM | < 10 µM |
| O=C(/N=C(/Nc1cccc(Cl)c1)N[C@H]1CC[C@H](O)CC1)c1ccc(C(F)(F)F)cc1 [Compound 8] | < 10 µM | < 10 µM |
| O=C(/N=C(/Nc1cc(F)cc(Cl)c1)N[C@H]1CC[C@H](Nc2ncccn2)CC1)c1ccc(F)c(F)c1 [Compound 9] | < 10 µM | < 10 µM |
| CCOC(=O)N[C@H]1CC[C@H](N/C(=N/C(=O)c2ccc(F)c(F)c2)Nc2cc(F)cc(Cl)c2)CC1 [Compound 10] | < 10 µM | < 10 µM |
| COC(=O)N[C@H]1CC[C@H](N/C(=N/C(=O)c2ccc(F)c(F)c2)Nc2cc(F)cc(Cl)c2)CC1 [Compound 11] | < 10 µM | < 10 µM |
| N[C@H]1CC[C@H](N/C(=N/C(=O)c2ccc(F)c(F)c2)Nc2cc(F)cc(Cl)c2)CC1 [Compound 12] | > 10 µM | < 10 µM |
| N[C@H]1CC[C@H](N/C(=N/C(=O)c2ccc(F)c(F)c2)Nc2cccc(C(F)(F)F)c2)CC1 [Compound 13] | > 10 µM | < 10 µM |
| CCOC(=O)N[C@H]1CC[C@H](N/C(=N/C(=O)c2ccc(F)c(F)c2)Nc2cccc(C(F)(F)F)c2)CC1 [Compound 14] | < 10 µM | < 10 µM |
| COC(=O)N[C@H]1CC[C@H](N/C(=N/C(=O)c2ccc(F)c(F)c2)Nc2cccc(C(F)(F)F)c2)CC1 [Compound 15] | < 10 µM | < 10 µM |
| O=C(/N=C(\NCc1ccccc1C(F)(F)F)N[C@H]1CC[C@H](O)CC1)c1ccc(F)c(F)c1 [Compound 16] | > 10 µM | < 10 µM |
| O=C(/N=C(/NCc1ccccc1C(F)(F)F)N[C@H]1CC[C@H](O)CC1)c1ccc(C(F)(F)F)cc1 [Compound 17] | < 10 µM | < 10 µM |
| CCOC(=O)N[C@H]1CC[C@H](N/C(=N\C(=O)c2ccc(C(F)(F)F)cc2)Nc2cccc(Cl)c2)CC1 [Compound 18] | < 10 µM | < 10 µM |
| CCOC(=O)N[C@H]1CC[C@H](N/C(=N/C(=O)c2ccc(F)c(F)c2)Nc2cccc(Cl)c2)CC1 [Compound 19] | < 10 µM | < 10 µM |
| O=C(/N=C(/Nc1cccc(Cl)c1)N[C@H]1CC[C@H](Nc2ncccn2)CC1)c1ccc(F)c(F)c1 [Compound 20] | < 10 µM | < 10 µM |
| O=C(/N=C(/Nc1ccccc1C1CC1)N[C@H]1CC[C@H](O)CC1)c1ccc(C(F)(F)F)cc1 [Compound 21] | < 10 µM | < 10 µM |
| O=C(/N=C(/Nc1ccccc1C1CC1)N[C@H]1CC[C@H](O)CC1)c1ccc(Cl)cc1 [Compound 22] | > 10 µM | > 10 µM |
| O=C(/N=C(/Nc1ccccc1C1CC1)N[C@H]1CC[C@H](O)CC1)c1ccc(F)c(F)c1 [Compound 23] | > 10 µM | > 10 µM |
| O=C(/N=C(/Nc1cccc(C(F)(F)F)c1)N[C@H]1CC[C@H](O)CC1)c1cccc(Cl)c1 [Compound 24] | < 10 µM | < 10 µM |
| O=C(/N=C(/Nc1cccc(Cl)c1)N[C@H]1CC[C@H](O)CC1)c1cccc(Cl)c1 [Compound 25] | > 10 µM | < 10 µM |
| O=C(/N=C(/Nc1cc(F)cc(Cl)c1)NC1CCC(O)CC1)c1cccc(Cl)c1 (stereo not drawn) [Compound 26] | – | < 10 µM |

| SMILES | IC50 (F1F0-ATPase) | EC50 (Ramos cells) |
| --- | --- | --- |
| O=C(/N=C(/Nc1cc(F)cc(Cl)c1)N[C@H]1CC[C@H](O)CC1)c1cccc(Cl)c1 [Compound 26] | < 10 µM | – |
| O=C(/N=C(/Nc1cccc(Cl)c1)N[C@H]1CC[C@H](O)CC1)c1ccc(Cl)cc1 [Compound 27] | > 10 µM | < 10 µM |
| O=C(/N=C(/Nc1cc(F)cc(Cl)c1)N[C@H]1CC[C@H](O)CC1)c1ccc(Cl)cc1 [Compound 28] | > 10 µM | < 10 µM |
| O=C(/N=C(/Nc1cccc(C(F)(F)F)c1)N[C@H]1CC[C@H](O)CC1)c1ccc(Cl)cc1 [Compound 29] | < 10 µM | < 10 µM |
| O=C(/N=C(/Nc1cccc(C(F)(F)F)c1)N[C@H]1CC[C@H](O)CC1)c1cccc(C(F)(F)F)c1 [Compound 30] | < 10 µM | < 10 µM |
| O=C(/N=C(/NCc1ccc(Cl)cc1)N[C@H]1CC[C@H](O)CC1)c1ccc(F)c(F)c1 [Compound 31] | > 10 µM | > 10 µM |
| O=C(/N=C(/NCc1ccccc1C(F)(F)F)N[C@H]1CC[C@H](O)CC1)c1ccc(F)c(F)c1 [Compound 32] | – | > 10 µM |
| O=C(/N=C(/NCc1cccc(C(F)(F)F)c1)N[C@H]1CC[C@H](O)CC1)c1ccc(F)c(F)c1 [Compound 33] | > 10 µM | < 10 µM |
| O=C(/N=C(/NCc1ccc(C(F)(F)F)cc1)N[C@H]1CC[C@H](O)CC1)c1ccc(F)c(F)c1 [Compound 34] | > 10 µM | < 10 µM |
| O=C(/N=C(/NCc1ccccc1F)N[C@H]1CC[C@H](O)CC1)c1ccc(F)c(F)c1 [Compound 35] | > 10 µM | > 10 µM |
| O=C(/N=C(/NCc1cccc(F)c1)N[C@H]1CC[C@H](O)CC1)c1ccc(F)c(F)c1 [Compound 36] | > 10 µM | > 10 µM |
| O=C(/N=C(/NCc1ccc(F)cc1)N[C@H]1CC[C@H](O)CC1)c1ccc(F)c(F)c1 [Compound 37] | > 10 µM | > 10 µM |
| O=C(/N=C(/NCc1cc(F)ccc1F)N[C@H]1CC[C@H](O)CC1)c1ccc(F)c(F)c1 [Compound 38] | > 10 µM | > 10 µM |
| O=C(/N=C(/NCc1ccc(F)c(F)c1)N[C@H]1CC[C@H](O)CC1)c1ccc(F)c(F)c1 [Compound 39] | > 10 µM | < 10 µM |
| O=C(/N=C(/NCc1cccc(F)c1F)N[C@H]1CC[C@H](O)CC1)c1ccc(F)c(F)c1 [Compound 40] | > 10 µM | > 10 µM |
| O=C(/N=C(/NCc1ccc(F)cc1F)N[C@H]1CC[C@H](O)CC1)c1ccc(F)c(F)c1 [Compound 41] | > 10 µM | > 10 µM |
| O=C(/N=C(/NCc1cc(F)cc(F)c1)N[C@H]1CC[C@H](O)CC1)c1ccc(F)c(F)c1 [Compound 42] | > 10 µM | > 10 µM |
| O=C(/N=C(/NCc1ccc(F)cc1Cl)N[C@H]1CC[C@H](O)CC1)c1ccc(F)c(F)c1 [Compound 43] | > 10 µM | > 10 µM |
| O=C(/N=C(/NCc1ccc(F)c(Cl)c1)N[C@H]1CC[C@H](O)CC1)c1ccc(F)c(F)c1 [Compound 44] | > 10 µM | < 10 µM |
| O=C(/N=C(/NCc1ccc(Cl)c(F)c1)N[C@H]1CC[C@H](O)CC1)c1ccc(F)c(F)c1 [Compound 45] | < 10 µM | < 10 µM |
| O=C(/N=C(/NCc1ccc(Cl)cc1F)N[C@H]1CC[C@H](O)CC1)c1ccc(F)c(F)c1 [Compound 46] | > 10 µM | < 10 µM |
| CCOC(=O)N[C@H]1CC[C@H](N/C(=N\C(=O)c2ccc(F)c(F)c2)NCc2ccccc2Cl)CC1 [Compound 47] | < 10 µM | < 10 µM |
| CCOC(=O)N[C@H]1CC[C@H](N/C(=N\C(=O)c2ccc(F)c(F)c2)NCc2cccc(Cl)c2)CC1 [Compound 48] | < 10 µM | < 10 µM |
| CCOC(=O)N[C@H]1CC[C@H](N/C(=N\C(=O)c2ccc(F)c(F)c2)NCc2ccc(Cl)cc2)CC1 [Compound 49] | < 10 µM | < 10 µM |
| CCOC(=O)N[C@H]1CC[C@H](N/C(=N/C(=O)c2ccc(F)c(F)c2)NC2CCCC2)CC1 [Compound 70] | – | > 10 µM |
| O=C(/N=C(/Nc1cc(F)cc(Cl)c1)N[C@H]1CCCC[C@@H]1O)c1ccc(C(F)(F)F)cc1 [Compound 127] | – | < 10 µM |
